Measurements reported in US20100267561A1, “HERBICIDAL PYRIDAZINONE DERIVATIVES” (priority 2007, published 2010).

Legend:
[1] = system: large crabgrass (Digitaria sanguinalis); assay: Test B pre-/postemergence plant response; format: in vivo
Procedure, shortened: (§1)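 Visual scoring from 0 (no effect) to 100 (complete control) against untreated controls was done 13 to 15 days after greenhouse treatment. Chemicals were formulated in a surfactant-containing non-phytotoxic solvent and applied to soil preemergence or to 1- to 4-leaf (2-18 cm) plants postemergence.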

[2] = system: cocklebur (Xanthium strumarium); assay: Test B pre-/postemergence plant response; format: in vivo
Procedure, shortened: as §1

[3] = Postemergence, 31 g ai/ha, scale 0 to 100, 0 no effect, 100 complete control
[4] = Postemergence, 62 g ai/ha, scale 0 to 100
[5] = Postemergence, 125 g ai/ha, scale 0 to 100
[6] = Postemergence, 250 g ai/ha, scale 0 to 100
[7] = Preemergence, 31 g ai/ha, 0 to 100 scale, 0 no effect, 100 complete control
[8] = Preemergence, 62 g ai/ha, scale 0 to 100
[9] = Preemergence, 125 g ai/ha, scale 0 to 100
[10] = Preemergence, 250 g ai/ha, scale 0 to 100
[11] = Postemergence, 16 g ai/ha, scale 0 to 100
[12] = Preemergence, 16 g ai/ha, scale 0 to 100 (0 no effect, 100 complete control)
[13] = 8 g ai/ha, postemergence, 0-100 scale
[14] = Postemergence, 31 g ai/ha, scale 0 to 100
[15] = Postemergence, 62 g ai/ha, scale 0 to 100, 0 no effect, 100 complete control
[16] = 16 g ai/ha, postemergence, 0-100 scale
[17] = Preemergence, 8 g ai/ha, scale 0 to 100 (0 no effect, 100 complete control)
[18] = Preemergence, 31 g ai/ha, scale 0 to 100 (0 no effect, 100 complete control)
[19] = Preemergence, 62 g ai/ha, 0 to 100 scale, 0 no effect, 100 complete control
[20] = Preemergence, 16 g ai/ha, scale 0 to 100

| Molecule | Plant response rating, Crabgrass, Large [1, 3] | Plant response rating, Crabgrass, Large [1, 4] | Plant response rating, Crabgrass, Large [1, 5] | Plant response rating, Crabgrass, Large [1, 7] | Plant response rating, Crabgrass, Large [1, 8] | Plant response rating, Crabgrass, Large [1, 9] | Plant response rating, Cocklebur [2, 3] | Plant response rating, Cocklebur [2, 4] | Plant response rating, Cocklebur [2, 5] | Plant response rating, Cocklebur [2, 7] | Plant response rating, Cocklebur [2, 8] | Plant response rating, Cocklebur [2, 9] | Plant response rating, Crabgrass, Large [1, 11] | Plant response rating, Cocklebur [2, 11] | Crabgrass, Large plant response rating [1, 13] | Plant response rating, Crabgrass, Large [1, 14] | Plant response rating, Crabgrass, Large [1, 15] | Cocklebur plant response rating [2, 13] | Plant response rating, Cocklebur [2, 14] | Plant response rating, Cocklebur [2, 15] | also measured |
| --- | --- | --- | --- | --- | --- | --- | --- | --- | --- | --- | --- | --- | --- | --- | --- | --- | --- | --- | --- | --- | --- |
| 5-[3-(4-chlorophenyl)-5-methyl-1H-pyrazol-1-yl]-1,6-dihydro-1-methyl-6-oxo-4-pyridazinyl-1-methylethyl carbonate [Compound 7] | 100 | 100 | 100 | 100 | 100 | 100 | 0 | 0 | 0 | 0 | 0 | 0 | – | – | – | – | – | – | – | – | Plant response rating, Crabgrass, Large [1, 6]: 100; Plant response rating, Crabgrass, Large [1, 10]: 100; Plant response rating, Cocklebur [2, 6]: 0; Plant response rating, Cocklebur [2, 10]: 0 |
| Cc1cc(-c2ccc(Br)cc2)nn1-c1c(OC(=O)C2CC2)cnn(C)c1=O [Compound 5] | 100 | 100 | 100 | 100 | 100 | 100 | 0 | 0 | 0 | 0 | 0 | 0 | – | – | – | – | – | – | – | – | Plant response rating, Crabgrass, Large [1, 6]: 100; Plant response rating, Crabgrass, Large [1, 10]: 100; Plant response rating, Cocklebur [2, 6]: 20 |
| CCc1cc(-c2ccc(C(F)(F)F)cc2)nn1-c1c(OC(=O)OC(C)C)cnn(C)c1=O [Compound 12] | 100 | 100 | 100 | 100 | 100 | 100 | 0 | 0 | 0 | 0 | 0 | 0 | 100 | 0 | – | – | – | – | – | – | Plant response rating, Crabgrass, Large [1, 12]: 100; Plant response rating, Cocklebur [2, 12]: 0 |
| Cc1nn(C)c(=O)c(-n2nc(-c3ccc(Cl)cc3)cc2Cl)c1O [Compound 59] | – | – | – | – | – | – | – | – | – | – | – | – | 45 | 0 | 20 | 55 | 60 | 0 | 0 | 0 | – |
| CCc1cc(-c2ccc(Br)cc2)nn1-c1c(O)cnn(CC(F)(F)F)c1=O [Compound 73] | – | – | – | – | – | – | – | – | – | – | – | – | 70 | 0 | 45 | 100 | 100 | 0 | 0 | 0 | – |
| CCc1c(C)c(-c2ccc(Br)cc2)nn1-c1c(O)cnn(C)c1=O [Compound 83] | – | – | – | – | – | – | – | – | – | – | – | – | – | – | 80 | 100 | 100 | 0 | 0 | 0 | Crabgrass, Large plant response rating [1, 16]: 95; Crabgrass, Large plant response rating [1, 17]: 0; Plant response rating, Crabgrass, Large [1, 18]: 85; Plant response rating, Crabgrass, Large [1, 19]: 100; Crabgrass, Large plant response rating [1, 20]: 35; Cocklebur plant response rating [2, 16]: 0; Cocklebur plant response rating [2, 17]: 0; Plant response rating, Cocklebur [2, 18]: 0; Plant response rating, Cocklebur [2, 19]: 0; Cocklebur plant response rating [2, 20]: 0 |
